One block for each compound: values may come before it.
Target: T1, PDE5 enzyme (Homo sapiens, UniProt O76074)
T1 construct: The PDE5 enzyme isolated from human platelets; from tissue; host or cells: human platelets
Assay: Method 1: Human Platelet PDE5 Enzyme Inhibition Scintillation Proximity Assay
Assay type: biochemical
Settings: METHOD 1: PDE5 IC50, Table B, WO2004096810 examples
Excerpt: Method 1: Human Platelet PDE5 Enzyme Inhibition Scintillation Proximity Assay
An in vitro assay can be used to evaluate the inhibition of PDE5 enzyme activity by a test compound.
The PDE5 enzyme for use in the assay can be obtained from human platelets by appropriate modification of the method of Thompson, W J et al.; Biochemistry 18(23), 5228-5237, 1979, as described by Ballard S A et al.; J. Urology 159(6), 2164-2171, 1998. The PDE5 enzyme isolated from human platelets can be used to catalyze the hydrolysis of [^3H]cGMP (Amersham Biosciences) to 5′ nucleotide [^3H]GMP. The [^3H]GMP binds to yttrium silicate SPA beads (Amersham Biosciences) and is detected by scintillation counting. More specifically, the effect of the test compound at different concentrations can be evaluated in the assay by contacting the compound with a fixed amount of PDE5 enzyme in the presence of substrate (cGMP or cAMP in a 3:1 ratio unlabelled to [^3H]-labeled). Scintillation counting can be used as described above to determine relative PDE5 enzyme activity. The inhibition of PDE5 enzyme activity is then calculated relative to total PDE5 enzyme activity of uninhibited controls.
PDE5 IC50 Assay: 96-well microtiter plate format
• Buffer A: 20 mM Tris-HCl, 5 mM MgCl2, pH 7.4 • Buffer B: 2 mg/ml BSA in Buffer A (enzyme buffer) • cGMP substrate: Final concentration of 500 nM in assay The amount of ^3H-labeled substrate added depends upon the specific activity of [^3H]cGMP, and the cGMP substrate is diluted with a 10 mM stock of cold cGMP in Buffer A for a final substrate concentration of 500 nM in the assay. • PDE enzyme: Prepared in Buffer B. The dilution factor is determined by enzyme activity. • SPA beads: 20 mg/ml suspension prepared in dH2O.
Stocks of standard and test compounds are prepared at 5 mM in 100% DMSO. The compound is serially diluted in a dilution plate using a 10-point ½ log dilution format. 2 μl of the compound dilution is added in duplicate to the wells of the assay plate. 2 μl of 100% DMSO are added to designated control wells. 25 μl of Buffer A are added to all wells. 25 μl of Buffer B are added to the negative control wells. 25 μl of enzyme are added to the remaining wells. 50 μl of substrate are added to each well. Plates are sealed and incubated for 60 minutes on a plate shaker at 30 C. 50 plof SPA beads are added to stop the reaction. The plates are again sealed and shaken for 15 minutes to allow the beads to bind the GMP product. The beads are allowed to settle for 30 minutes and then read on a NXT TopCount scintillation counter. Data are analyzed with a curve fitting application for plate-based screening. Percent inhibition in this assay is calculated as follows: Inhibition (%)=[(mean maximum−compound value/(mean maximum−mean minimum)]×100.
The IC50 value is determined from sigmoid dose-response curves of enzyme activity versus compound concentration.

SMILES: CCOCCn1nc(CC)c2nc(N(C)[C@@H]3CCN(C)C3)nc(Nc3ccncn3)c21 [WO2004096810 Example 160]
IC50: 7.22 nM

SMILES: CCOCCn1nc(CC)c2nc(N(C)[C@H]3CCN(C)C3)nc(Nc3cc(C)ccn3)c21 [WO2004096810 Example 162]
IC50: 0.24 nM

SMILES: Cc1ccnc(Nc2nc(N3CCNCC3)nc3c(C)nn(CC4CCCO4)c23)c1 (stereo not shown) [WO2004096810 Example 166]
IC50: 11.5 nM

SMILES: Cc1ccnc(Nc2nc(N3CCNCC3)nc3c(C)nn(Cc4ccccn4)c23)c1 [WO2004096810 Example 167]
IC50: 2.95 nM

SMILES: Cc1ccnc(Nc2nc(N3CCNCC3)nc3c(C)nn(CC4CCCCO4)c23)c1 (stereo not shown) [WO2004096810 Example 168]
IC50: 0.81 nM

SMILES: Cc1ccnc(Nc2nc(N3CCNCC3)nc3c(C)nn(CC(F)(F)F)c23)c1 [WO2004096810 Example 170]
IC50: 2100 nM

SMILES: Cc1ccnc(Nc2nc(N3CCNCC3)nc3c(C)n(CC4CC4)nc23)c1 [WO2004096810 Example 173]
IC50: 396 nM

SMILES: Cc1ccnc(Nc2nc(N3CCNCC3)nc3c(C)n(CCC(C)C)nc23)c1 [WO2004096810 Example 174]
IC50: 432 nM

SMILES: Cc1ccnc(Nc2nc(N3CCNCC3)nc3c(C)n(Cc4ccccn4)nc23)c1 [WO2004096810 Example 176]
IC50: 274 nM

SMILES: Cc1ccnc(Nc2nc(N3CCNCC3)nc3c(C)n(CC4CCC4)nc23)c1 [WO2004096810 Example 177]
IC50: 535 nM

SMILES: COCCn1nc(C(C)C)c2nc(N3CCNCC3)nc(Nc3ccc(C)cn3)c21 [WO2004096810 Example 179]
IC50: 18.3 nM

SMILES: CCc1nn(CCOC)c2c(Nc3cc(C)n[nH]3)nc(N3CCNCC3)nc12 [WO2004096810 Example 180]
IC50: 341 nM

SMILES: CCOCCn1nc(CO)c2nc(N(C)CC)nc(Nc3cc(C)ccn3)c21 [WO2004096810 Example 181]
IC50: 0.39 nM

SMILES: CCOCCn1nc(CO)c2nc(N(C)C)nc(Nc3cc(C)ccn3)c21 [WO2004096810 Example 182]
IC50: 4.03 nM

SMILES: CCOCCn1nc(COC)c2nc(N(C)C)nc(Nc3cc(C)ccn3)c21 [WO2004096810 Example 185]
IC50: 1.3 nM

SMILES: CCOCCn1nc(COCC)c2nc(N(C)C)nc(Nc3cc(C)ccn3)c21 [WO2004096810 Example 188]
IC50: 0.47 nM

SMILES: CCOCCn1nc(C)c2nc(N(C)[C@H]3CCN(C)C3)nc(Nc3ccncn3)c21 [WO2004096810 Example 191]
IC50: 0.24 nM

SMILES: CCOCCn1nc(CC)c2nc(N(C)[C@H]3CCN(C)C3)nc(Nc3ccc(C)cn3)c21 [WO2004096810 Example 192]
IC50: 3.06 nM

SMILES: CCOCCn1nc(CC)c2nc(N(C)[C@H]3CCN(C)C3)nc(Nc3ccncn3)c21 [WO2004096810 Example 193]
IC50: 1.01 nM

SMILES: CCOCCn1nc(C)c2nc(N(C)CCOC)nc(Nc3ccc(=O)n(C)c3)c21 [WO2004096810 Example 202]
IC50: 5.46 nM

SMILES: CCOCCn1nc(C)c2nc(N(C)CC)nc(Nc3ccc(=O)n(C)c3)c21 [WO2004096810 Example 203]
IC50: 0.63 nM

SMILES: CCOCCn1nc(C)c2nc(N(C)CCOC)nc(Nc3cc(C)ccn3)c21 [WO2004096810 Example 207]
IC50: 1.55 nM

SMILES: CCOCCn1nc(C)c2nc(N(C)CCO)nc(Nc3cc(C)ccn3)c21 [WO2004096810 Example 208]
IC50: 0.71 nM

SMILES: CCOCCn1nc(C)c2nc(N3C[C@@H]4C[C@H]3CN4C)nc(Nc3ccncn3)c21 [WO2004096810 Example 210]
IC50: 82.7 nM

SMILES: CCOCCn1nc(COC)c2nc(N(C)CC)nc(Nc3cc(C)ccn3)c21 [WO2004096810 Example 212]
IC50: 0.13 nM

SMILES: CCOCCn1nc(COC)c2nc(N3CCC[C@H]3CO)nc(Nc3cc(C)ccn3)c21 [WO2004096810 Example 213]
IC50: 0.42 nM

SMILES: CCOCCn1nc(COC)c2nc(N(C)C3CCN(C)CC3)nc(Nc3cc(C)ccn3)c21 [WO2004096810 Example 214]
IC50: 0.37 nM

SMILES: CCOCCn1nc(COC)c2nc(N3CC(N(C)C)C3)nc(Nc3cc(C)ccn3)c21 [WO2004096810 Example 215]
IC50: 5.3 nM

SMILES: CCOCCn1nc(C)c2nc(N(C)CCN(C)C)nc(Nc3ccncn3)c21 [WO2004096810 Example 216]
IC50: 60.9 nM

SMILES: CCOCCn1nc(C)c2nc(N(C)CC)nc(Nc3ccncn3)c21 [WO2004096810 Example 217]
IC50: 2.55 nM

SMILES: CCOCCn1nc(C)c2nc(N(C)CC)nc(Nc3ccnc(C)n3)c21 [WO2004096810 Example 218]
IC50: 11.5 nM

SMILES: CCOCCn1nc(C)c2nc(N(C)CCOC)nc(Nc3ccnc(C)n3)c21 [WO2004096810 Example 219]
IC50: 41 nM

SMILES: CCOCCn1nc(COC)c2nc(N(C)CC)nc(Nc3ccncn3)c21 [WO2004096810 Example 225]
IC50: 1.33 nM

SMILES: CCOCCn1nc(COC)c2nc(N(C)CCOC)nc(Nc3cc(C)ccn3)c21 [WO2004096810 Example 226]
IC50: 0.83 nM

SMILES: CCOCCn1nc(COC)c2nc(N(C)CCO)nc(Nc3cc(C)ccn3)c21 [WO2004096810 Example 227]
IC50: 0.35 nM

SMILES: CCOCCn1nc(CO)c2nc(N(C)CC)nc(Nc3ccncn3)c21 [WO2004096810 Example 228]
IC50: 3.09 nM

SMILES: CCOCCn1nc(CO)c2nc(N3C[C@@H]4C[C@H]3CN4)nc(Nc3cc(C)ccn3)c21 [WO2004096810 Example 229]
IC50: 1.61 nM

SMILES: Cc1ccnc(Nc2nc(N3C[C@@H]4C[C@H]3CN4)nc3c(C)nn(CCOCC(F)(F)F)c23)c1 [WO2004096810 Example 231]
IC50: 10.3 nM

SMILES: CCOCCn1nc(C)c2nc(N3C[C@@H]4C[C@H]3CN4)nc(Nc3cnc(C)c(C)c3)c21 [WO2004096810 Example 233]
IC50: 3.85 nM

Next, values leading:

IC50: 0.5 nM
SMILES: CCOCCn1nc(C)c2nc(N(C)[C@H]3CCN(C)C3)nc(Nc3cc(C)ccn3)c21 [WO2004096810 Example 161]

IC50: 10.5 nM
SMILES: COCCn1nc(C)c2nc(N3CCNCC3)nc(Nc3cc(C)ccn3)c21 [WO2004096810 Example 165]

IC50: 0.56 nM
SMILES: CCOCCn1nc(C)c2nc(N3CCN[C@H](C)C3)nc(Nc3ccc(OC)nc3)c21 [WO2004096810 Example 194]

IC50: 0.96 nM
SMILES: CCOCCn1nc(C)c2nc(N3CCN[C@H](C)C3)nc(Nc3ccc(OC)cn3)c21 [WO2004096810 Example 195]

IC50: 0.56 nM
SMILES: CCOCCn1nc(C)c2nc(N3CCN[C@H](C)C3)nc(Nc3cccc(OC)n3)c21 [WO2004096810 Example 196]

IC50: 1.76 nM
SMILES: CCOCCn1nc(C)c2nc(N3CCN[C@H](C)C3)nc(Nc3cccc(C)n3)c21 [WO2004096810 Example 197]

IC50: 10 nM
SMILES: CCOCCn1nc(C)c2nc(N3CCN[C@H](C)C3)nc(Nc3cc(C)cc(C)n3)c21 [WO2004096810 Example 198]

IC50: 3.13 nM
SMILES: CCOCCn1nc(C)c2nc(N3CCN[C@H](C)C3)nc(Nc3cnc(C)c(C)c3)c21 [WO2004096810 Example 199]

IC50: 4.7 nM
SMILES: CCOCCn1nc(C)c2nc(N3CCN[C@H](C)C3)nc(Nc3cc(C)ncn3)c21 [WO2004096810 Example 200]

IC50: 25.9 nM
SMILES: CCOCCn1nc(C)c2nc(N3CCN[C@H](C)C3)nc(Nc3ccc(=O)n(C)c3)c21 [WO2004096810 Example 201]

IC50: 24.1 nM
SMILES: CCOCCn1nc(C)c2nc(N3CC(NC)C3)nc(Nc3cc(C)ccn3)c21 [WO2004096810 Example 204]

IC50: 6.24 nM
SMILES: CCOCCn1nc(C)c2nc(N3CC(N(C)C)C3)nc(Nc3cc(C)ccn3)c21 [WO2004096810 Example 205]

IC50: 6.09 nM
SMILES: CCOCCn1nc(C)c2nc(N3C[C@@H]4C[C@H]3CN4C)nc(Nc3cc(C)ccn3)c21 [WO2004096810 Example 206]

IC50: 1.57 nM
SMILES: CCOCCn1nc(COC)c2nc(N3CCN[C@H](C)C3)nc(Nc3cccc(C)n3)c21 [WO2004096810 Example 211]

IC50: 3.6 nM
SMILES: CCOCCn1nc(C)c2nc(N3CCN[C@H](C)C3)nc(Nc3ccnc(C)n3)c21 [WO2004096810 Example 220]

IC50: 35.4 nM
SMILES: CCOCCn1nc(C)c2nc(N3CCN[C@H](C)C3)nc(Nc3nccc(C)n3)c21 [WO2004096810 Example 221]

IC50: 10.1 nM
SMILES: CCOCCn1nc(C)c2nc(N3CCN[C@H](C)C3)nc(Nc3cc(C(F)(F)F)ccn3)c21 [WO2004096810 Example 222]

IC50: 8.79 nM
SMILES: CCOCCn1nc(C)c2nc(N3C[C@@H]4C[C@H]3CN4)nc(Nc3cc(C)cc(C)n3)c21 [WO2004096810 Example 234]

IC50: > 100 nM
SMILES: CCOCCn1nc(C)c2nc(N3C[C@@H]4C[C@H]3CN4)nc(Nc3cccc(C)n3)c21 [WO2004096810 Example 235]

Source: patent US8518956B2, “1-(1-(2-ethoxyethyl)-3-ethyl-7-(4-methylpyridin-2-ylamino)-1H-pyrazolo[4,3-d]pyrimidin-5-yl) piperidine-4-carboxylic acid and salts thereof” (priority 2005, dated 2013)
